According to patent publication US12052991B2, “Substituted pyridinyloxybenzenes and salts thereof and use thereof as herbicidal agents” (Bayer Aktiengesellschaft, priority 2018, dated 2024):

System: Abutilon theophrasti (ABUTH)
Experiment: Herbicidal pre-emergence action, test C (Table C5)
Format: in vivo
Conditions: dosage 320 g/ha; visual scoring after about 3 weeks; 100% = plants have died, 0% = like control plants
Outline: (§1)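 In this test, soil-covered weed seeds in sandy loam received a surface application of compound at 1280 or 320 g/ha. Effects were rated visually as percentages compared with untreated controls roughly 3 weeks later.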

Compound | Pre-emergence action against Abutilon theophrasti (ABUTH)
Cc1cccc(Oc2ncc(Cl)cc2F)c1-c1cc(C(F)F)no1 [Example 1-20] | 90%

Same assay, conditions: dosage 1280 g/ha; visual scoring after about 3 weeks; 100% = plants have died, 0% = like control plants

Compound | Pre-emergence action against Abutilon theophrasti (ABUTH)
Cc1cccc(Oc2ncc(Cl)cc2F)c1-c1cc(C(F)F)no1 [Example 1-20] | 100%

System: Stellaria media (STEME)
Experiment: Herbicidal pre-emergence action, test C (Table C8)
Format: in vivo
Conditions: dosage 320 g/ha; visual scoring after about 3 weeks; 100% = plants have died, 0% = like control plants
Outline: as §1

Compound | Pre-emergence action against Stellaria media (STEME)
Cc1cccc(Oc2ncc(Cl)cc2F)c1-c1cc(C(F)F)no1 [Example 1-20] | 100%

Same assay, conditions: dosage 1280 g/ha; visual scoring after about 3 weeks; 100% = plants have died, 0% = like control plants

Compound | Pre-emergence action against Stellaria media (STEME)
Cc1cccc(Oc2ncc(Cl)cc2F)c1-c1cc(C(F)F)no1 [Example 1-20] | 100%

System: Amaranthus retroflexus (AMARE)
Experiment: Herbicidal post-emergence action (Table B6)
Format: in vivo
Conditions: dosage 320 g/ha; visual rating about 3 weeks after treatment; 100% = plants have died, 0% = like control plants
Outline: (§2)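 Visual percent activity relative to untreated controls (100% = plants dead, 0% = like controls) was scored about 3 weeks after treatment. Plants had been sprayed at the one-leaf stage with formulated compound at 1280 or 320 g/ha in 600 L/ha water containing 0.5% additive.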

Compound | Post-emergence action against Amaranthus retroflexus (AMARE)
Cc1cccc(Oc2ncc(Cl)cc2F)c1-c1cc(C(F)F)no1 [Example 1-20] | 100%

Same assay, conditions: dosage 1280 g/ha; visual rating about 3 weeks after treatment; 100% = plants have died, 0% = like control plants

Compound | Post-emergence action against Amaranthus retroflexus (AMARE)
Cc1cccc(Oc2ncc(Cl)cc2F)c1-c1cc(C(F)F)no1 [Example 1-20] | 100%

System: Echinochloa crus-galli (ECHCG)
Experiment: Herbicidal post-emergence action (Table B1)
Format: in vivo
Conditions: 320 g/ha; rated visually after about 3 weeks; 100% = plants have died, 0% = like control plants
Outline: as §2

Compound | Post-emergence action against Echinochloa crus-galli (ECHCG)
Cc1cccc(Oc2ncc(Cl)cc2F)c1-c1cc(C(F)F)no1 [Example 1-20] | 100%

Same assay, conditions: 1280 g/ha; rated visually after about 3 weeks; 100% = plants have died, 0% = like control plants

Compound | Post-emergence action against Echinochloa crus-galli (ECHCG)
Cc1cccc(Oc2ncc(Cl)cc2F)c1-c1cc(C(F)F)no1 [Example 1-20] | 100%

System: harmful plants ABUTH, AMARE, ECHCG, LOLRI, MATIN, POAAN, SETVI, STEME, ALOMY, DIGSA, KCHSC and VERPE
Experiment: Herbicidal post-emergence action, summary of Tables B1-B12
Format: in vivo
Conditions: application rate of 1280 or 320 g of active ingredient per hectare; summary in words
Outline: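 Greenhouse weeds in sandy loam treated post-emergence at the one-leaf stage, 2–3 weeks after sowing, with WP or EC formulations sprayed with 0.5% additive at 600 L/ha water, 1280 or 320 g/ha. Damage rated visually after about 3 weeks versus untreated controls (0% = like control, 100% = dead).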

Compound | herbicidal activity against the harmful plants of Tables B1-B12 in post-emergence treatment
Cc1cccc(Oc2ncc(Cl)cc2F)c1-c1cc(C(F)F)no1 [Example 1-20] | very good herbicidal activity

System: Abutilon theophrasti (ABUTH)
Experiment: Herbicidal post-emergence action (Table B5)
Format: in vivo
Conditions: 320 g/ha; rated visually after about 3 weeks; 100% = plants have died, 0% = like control plants
Outline: as §2

Compound | Post-emergence action against Abutilon theophrasti (ABUTH)
Cc1cccc(Oc2ncc(Cl)cc2F)c1-c1cc(C(F)F)no1 [Example 1-20] | 100%

Same assay, conditions: 1280 g/ha; rated visually after about 3 weeks; 100% = plants have died, 0% = like control plants

Compound | Post-emergence action against Abutilon theophrasti (ABUTH)
Cc1cccc(Oc2ncc(Cl)cc2F)c1-c1cc(C(F)F)no1 [Example 1-20] | 100%

System: Stellaria media (STEME)
Experiment: Herbicidal post-emergence action (Table B8)
Format: in vivo
Conditions: dosage 320 g/ha; visual rating about 3 weeks after treatment; 100% = plants have died, 0% = like control plants
Outline: as §2

Compound | Post-emergence action against Stellaria media (STEME)
Cc1cccc(Oc2ncc(Cl)cc2F)c1-c1cc(C(F)F)no1 [Example 1-20] | 100%

Same assay, conditions: dosage 1280 g/ha; visual rating about 3 weeks after treatment; 100% = plants have died, 0% = like control plants

Compound | Post-emergence action against Stellaria media (STEME)
Cc1cccc(Oc2ncc(Cl)cc2F)c1-c1cc(C(F)F)no1 [Example 1-20] | 100%

System: Poa annua (POAAN)
Experiment: Herbicidal pre-emergence action, test C (Table C3)
Format: in vivo
Conditions: dosage 320 g/ha; visual scoring after about 3 weeks; 100% = plants have died, 0% = like control plants
Outline: as §1

Compound | Pre-emergence action against Poa annua (POAAN)
Cc1cccc(Oc2ncc(Cl)cc2F)c1-c1cc(C(F)F)no1 [Example 1-20] | 90%

Same assay, conditions: dosage 1280 g/ha; visual scoring after about 3 weeks; 100% = plants have died, 0% = like control plants

Compound | Pre-emergence action against Poa annua (POAAN)
Cc1cccc(Oc2ncc(Cl)cc2F)c1-c1cc(C(F)F)no1 [Example 1-20] | 90%

System: Poa annua (POAAN)
Experiment: Herbicidal post-emergence action (Table B3)
Format: in vivo
Conditions: 320 g/ha; rated visually after about 3 weeks; 100% = plants have died, 0% = like control plants
Outline: as §2

Compound | Post-emergence action against Poa annua (POAAN)
Cc1cccc(Oc2ncc(Cl)cc2F)c1-c1cc(C(F)F)no1 [Example 1-20] | 100%

Same assay, conditions: 1280 g/ha; rated visually after about 3 weeks; 100% = plants have died, 0% = like control plants

Compound | Post-emergence action against Poa annua (POAAN)
Cc1cccc(Oc2ncc(Cl)cc2F)c1-c1cc(C(F)F)no1 [Example 1-20] | 100%

System: harmful plants ABUTH, AMARE, ECHCG, LOLRI, MATIN, POAAN, SETVI, STEME, ALOMY, DIGSA, KCHSC and VERPE
Experiment: Herbicidal pre-emergence action (test C), summary of Tables C1-C12
Format: in vivo
Conditions: application rate of 1280 or 320 g of active ingredient per hectare; summary in words
Outline: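 Pre-emergence pot test in sandy loam: WP or EC formulations were sprayed onto the covering soil with 0.5% additive at 600 L/ha water, at 1280 or 320 g/ha. Plants were kept in the greenhouse, and activity was rated visually about 3 weeks later as % versus untreated controls (100% = dead).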

Compound | herbicidal activity against the harmful plants of Tables C1-C12 in pre-emergence treatment
Cc1cccc(Oc2ncc(Cl)cc2F)c1-c1cc(C(F)F)no1 [Example 1-20] | very good herbicidal activity

System: Lolium rigidum (LOLRI)
Experiment: Herbicidal pre-emergence action, test C (Table C2)
Format: in vivo
Conditions: dosage 1280 g/ha; visual scoring after about 3 weeks; 100% = plants have died, 0% = like control plants
Outline: as §1

Compound | Pre-emergence action against Lolium rigidum (LOLRI)
Cc1cccc(Oc2ncc(Cl)cc2F)c1-c1cc(C(F)F)no1 [Example 1-20] | 90%

System: Amaranthus retroflexus (AMARE)
Experiment: Herbicidal pre-emergence action, test C (Table C6)
Format: in vivo
Conditions: dosage 320 g/ha; visual scoring after about 3 weeks; 100% = plants have died, 0% = like control plants
Outline: as §1

Compound | Pre-emergence action against Amaranthus retroflexus (AMARE)
Cc1cccc(Oc2ncc(Cl)cc2F)c1-c1cc(C(F)F)no1 [Example 1-20] | 100%

Same assay, conditions: dosage 1280 g/ha; visual scoring after about 3 weeks; 100% = plants have died, 0% = like control plants

Compound | Pre-emergence action against Amaranthus retroflexus (AMARE)
Cc1cccc(Oc2ncc(Cl)cc2F)c1-c1cc(C(F)F)no1 [Example 1-20] | 100%

System: Lolium rigidum (LOLRI)
Experiment: Herbicidal post-emergence action (Table B2)
Format: in vivo
Conditions: 320 g/ha; rated visually after about 3 weeks; 100% = plants have died, 0% = like control plants
Outline: as §2

Compound | Post-emergence action against Lolium rigidum (LOLRI)
Cc1cccc(Oc2ncc(Cl)cc2F)c1-c1cc(C(F)F)no1 [Example 1-20] | 90%

Same assay, conditions: 1280 g/ha; rated visually after about 3 weeks; 100% = plants have died, 0% = like control plants

Compound | Post-emergence action against Lolium rigidum (LOLRI)
Cc1cccc(Oc2ncc(Cl)cc2F)c1-c1cc(C(F)F)no1 [Example 1-20] | 90%

System: Echinochloa crus-galli (ECHCG)
Experiment: Herbicidal pre-emergence action, test C (Table C1)
Format: in vivo
Conditions: dosage 320 g/ha; visual scoring after about 3 weeks; 100% = plants have died, 0% = like control plants
Outline: as §1

Compound | Pre-emergence action against Echinochloa crus-galli (ECHCG)
Cc1cccc(Oc2ncc(Cl)cc2F)c1-c1cc(C(F)F)no1 [Example 1-20] | 90%

Same assay, conditions: dosage 1280 g/ha; visual scoring after about 3 weeks; 100% = plants have died, 0% = like control plants

Compound | Pre-emergence action against Echinochloa crus-galli (ECHCG)
Cc1cccc(Oc2ncc(Cl)cc2F)c1-c1cc(C(F)F)no1 [Example 1-20] | 90%

System: Setaria viridis (SETVI)
Experiment: Herbicidal pre-emergence action, test C (Table C4)
Format: in vivo
Conditions: dosage 320 g/ha; visual scoring after about 3 weeks; 100% = plants have died, 0% = like control plants
Outline: as §1

Compound | Pre-emergence action against Setaria viridis (SETVI)
Cc1cccc(Oc2ncc(Cl)cc2F)c1-c1cc(C(F)F)no1 [Example 1-20] | 100%

Same assay, conditions: dosage 1280 g/ha; visual scoring after about 3 weeks; 100% = plants have died, 0% = like control plants

Compound | Pre-emergence action against Setaria viridis (SETVI)
Cc1cccc(Oc2ncc(Cl)cc2F)c1-c1cc(C(F)F)no1 [Example 1-20] | 100%
